These molecules were tested against benzodiazepine site of the GABAA receptor (assay: Ligand binding assay of Example 6 (3H-Ro15-1788 competition, purified rat cortical membranes)). Conditions: ligand binding assay of Example 6; Table 5 Ki.
In the case of CCCc1c(Cn2ccnc2-c2ncccc2F)ncn2nc(C(=O)OCC)nc12 [Compound 238, 7-[2-(3-Fluoro-pyridin-2-yl)-imidazol-1-ylmethyl]-8-propyl-[1,2,4]triazolo[1,5-c]pyrimidine-2-carboxylic acidethyl ester], the Ki is reported as under 1000 nM. N#Cc1cccnc1-c1nccn1Cc1ncn2ncnc2c1CCCF [Compound 236, 2-{1-[8-(3-Fluoro-propyl)-[1,2,4]triazolo[1,5-c]pyrimidin-7-ylmethyl]-1H-imidazol-2-yl}-nicotinonitrile] showed a Ki of under 1000 nM. Molecule CCCc1c(Cn2ccnc2-c2ncccc2F)ncn2nc(-c3cccnc3)nc12 [Compound 225, 7-[2-(3-Fluoro-pyridin-2-yl)-imidazol-1-ylmethyl]-8-propyl-2-pyridin-3-yl-[1,2,4]triazolo[1,5-c]pyrimidine] has a Ki of under 1000 nM. Cc1nc2c(CCCO)c(Cn3ccnc3-c3ncccc3F)ncn2n1 [Compound 228, 3-{7-[2-(3-Fluoro-pyridin-2-yl)-imidazol-1-ylmethyl]-2-methyl-[1,2,4]triazolo[1,5-c]pyrimidin-8-yl}-propan-1-ol] was tested, and the Ki was under 1000 nM. Molecule CCCc1c(Cn2ccnc2-c2cccc(C#N)n2)ncn2nc(COC)nc12 [Compound 253, 6-(1-{[2-(methoxymethyl)-8-propyl[1,2,4]triazolo[1,5-c]pyrimidin-7-yl]methyl}-1H-imidazol-2-yl)pyridine-2-carbonitrile] has a Ki of under 1000 nM. With CCCc1c(Cn2ccnc2-c2ncccc2F)ncn2nc(COC(C)C)nc12 [Compound 263, 7-{[2-(3-fluoropyridin-2-yl)-1H-imidazol-1-yl]methyl}-2-(isopropoxymethyl)-8-propyl[1,2,4]triazolo[1,5-c]pyrimidine] the Ki was under 1000 nM. Cc1nc2c(CCCOCc3ccccc3)c(Cn3ccnc3-c3ncccc3F)ncn2n1 [Compound 226, 8-(3-Benzyloxy-propyl)-7-[2-(3-fluoro-pyridin-2-yl)-imidazol-1-ylmethyl]-2-methyl[1,2,4]triazolo[1,5-c]pyrimidine] gave a Ki of under 1000 nM. In the case of CCOc1c(Cn2ccnc2-c2ncccc2F)ncn2ncnc12 [Compound 245, 8-ethoxy-7-{[2-(3-fluoropyridin-2-yl)-1H-imidazol-1-yl]methyl}[1,2,4]triazolo[1,5-c]pyrimidine], the Ki is reported as under 1000 nM. Molecule CCCc1c(Cn2ccnc2-c2cccc(F)n2)ncn2nc(COCC)nc12 [Compound 250, 2-(ethoxymethyl)-7-{[2-(6-fluoropyridin-2-yl)-1H-imidazol-1-yl]methyl}-8-propyl[1,2,4]triazolo[1,5-c]pyrimidine] has a Ki of under 1000 nM. CCc1nc2c(CC)c(Cn3ccnc3-c3cc(F)ccc3C)ncn2n1 [Compound 219, 2,8-Diethyl-7-[2-(5-fluoro-2-methyl-phenyl)-imidazol-1-ylmethyl]-[1,2,4]triazolo[1,5-c]pyrimidine] showed a Ki of under 1000 nM. In the case of COCc1c(Cn2ccnc2-c2ncccc2F)ncn2nc(C)nc12 [Compound 220, 7-[2-(3-Fluoro-pyridin-2-yl)-imidazol-1-ylmethyl]-8-methoxymethyl-2-methyl-[1,2,4]triazolo[1,5-c]pyrimidine], the Ki is reported as under 1000 nM. With CCCc1c(Cn2ccnc2-c2ncccc2F)ncn2nc(C3CCCO3)nc12 (stereo not shown) [Compound 254, 7-{[2-(3-fluoropyridin-2-yl)-1H-imidazol-1-yl]methyl}-8-propyl-2-(tetrahydrofuran-2-yl)[1,2,4]triazolo[1,5-c]pyrimidine] the Ki was under 1000 nM. CCCc1c(Cn2ccnc2-c2cccc(C#N)n2)ncn2nc(COC(C)C)nc12 [Compound 264, 6-(1-{[2-(isopropoxymethyl)-8-propyl[1,2,4]triazolo[1,5-c]pyrimidin-7-yl]methyl}-1H-imidazol-2-yl)pyridine-2-carbonitrile] was tested, and the Ki was under 1000 nM. Molecule CCc1c(Cn2ccnc2-c2ncccc2F)ncn2nc(C)nc12 [Compound 244, 8-ethyl-7-{[2-(3-fluoropyridin-2-yl)-1H-imidazol-1-yl]methyl}-2-methyl[1,2,4]triazolo[1,5-c]pyrimidine] has a Ki of under 1000 nM. CCCc1c(Cn2ccnc2-c2ncccc2F)ncn2nc(OC)nc12 [Compound 246, 7-{[2-(3-fluoropyridin-2-yl)-1H-imidazol-1-yl]methyl}-2-methoxy-8-propyl[1,2,4]triazolo[1,5-c]pyrimidine] gave a Ki of under 1000 nM. With CCCc1c(Cn2ccnc2-c2cccc(C#N)n2)ncn2nc(COCC)nc12 [Compound 260, 6-(1-{[2-(ethoxymethyl)-8-propyl[1,2,4]triazolo[1,5-c]pyrimidin-7-yl]methyl}-1H-imidazol-2-yl)pyridine-2-carbonitrile] the Ki was under 1000 nM. With Cc1nc2c(CCOCc3ccccc3)c(Cn3ccnc3-c3ncccc3F)ncn2n1 [Compound 227, 8-(2-Benzyloxy-ethyl)-7-[2-(3-fluoro-pyridin-2-yl)-imidazol-1-ylmethyl]-2-methyl-[1,2,4]triazolo[1,5-c]pyrimidine] the Ki was under 1000 nM. CCCc1c(Cn2ccnc2-c2cccc(C#N)n2)ncn2nc(C)nc12 [Compound 262, 6-{1-[(2-methyl-8-propyl[1,2,4]triazolo[1,5-c]pyrimidin-7-yl]methyl]-1H-imidazol-2-yl}pyridine-2-carbonitrile] showed a Ki of under 1000 nM. CCCc1c(Cn2ccnc2-c2ncccc2F)ncn2nc(CC(F)(F)F)nc12 [Compound 257, 7-{[2-(3-fluoropyridin-2-yl)-1H-imidazol-1-yl]methyl}-8-propyl-2-(2,2,2-trifluoroethyl)[1,2,4]triazolo[1,5-c]pyrimidine] showed a Ki of under 1000 nM. Molecule CCCc1c(Cn2ccnc2-c2ncccc2F)ncn2nc(N(CCC)CCC)nc12 [Compound 259, 7-{[2-(3-fluoropyridin-2-yl)-1H-imidazol-1-yl]methyl}-N,N,8-tripropyl[1,2,4]triazolo[1,5-c]pyrimidin-2-amine] has a Ki of under 1000 nM. In the case of CCC(O)c1c(Cn2ccnc2-c2cccc(F)n2)ncn2nc(C)nc12 (stereo not shown) [Compound 221, 1-{7-[2-(6-Fluoro-pyridin-2-yl)-imidazol-1-ylmethyl]-2-methyl-[1,2,4]triazolo[1,5-c]pyrimidin-8-yl}-propan-1-ol], the Ki is reported as under 1000 nM. CCCc1c(Cn2ccnc2-c2cccc(F)n2)nc(C)n2nc(CC)nc12 [Compound 218, 2-Ethyl-7-[2-(6-fluoro-pyridin-2-yl)-imidazol-1-ylmethyl]-5-methyl-8-propyl-[1,2,4]triazolo[1,5-c]pyrimidine] was tested, and the Ki was under 1000 nM. Molecule CCCc1c(Cn2ccnc2-c2ncccc2F)ncn2nc(OCC)nc12 [Compound 247, 2-ethoxy-7-{[2-(3-fluoropyridin-2-yl)-1H-imidazol-1-yl]methyl}-8-propyl[1,2,4]triazolo[1,5-c]pyrimidine] has a Ki of under 1000 nM. Work on CCC(O)c1c(Cn2ccnc2-c2ncccc2F)ncn2nc(C)nc12 (stereo not shown) [Compound 222, 1-{7-[2-(3-Fluoro-pyridin-2-yl)-imidazol-1-ylmethyl]-2-methyl-[1,2,4]triazolo[1,5-c]pyrimidin-8-yl}-propan-1-ol] yielded a Ki of under 1000 nM. For Cc1nc2c(CCCF)c(Cn3ccnc3-c3ncccc3F)ncn2n1 [Compound 232, 8-(3-Fluoro-propyl)-7-[2-(3-fluoro-pyridin-2-yl)-imidazol-1-ylmethyl]-2-methyl-[1,2,4]triazolo[1,5-c]pyrimidine], the Ki was under 1000 nM. CCCc1c(Cn2ccnc2-c2ncccc2F)ncn2nc(COCC(F)(F)F)nc12 [Compound 255, 7-{[2-(3-fluoropyridin-2-yl)-1H-imidazol-1-yl]methyl}-8-propyl-2-[(2,2,2-trifluoroethoxy)methyl][1,2,4]triazolo[1,5-c]pyrimidine] gave a Ki of under 1000 nM. CCCc1c(Cn2ccnc2-c2cccc(F)n2)nc(C)n2nc(C)nc12 [Compound 217, 7-[2-(6-Fluoro-pyridin-2-yl)-imidazol-1-ylmethyl]-2,5-dimethyl-8-propyl-[1,2,4]triazolo[1,5-c]pyrimidine] gave a Ki of under 1000 nM. FCCCc1c(Cn2ccnc2-c2ncccc2F)ncn2ncnc12 [Compound 233, 8-(3-Fluoro-propyl)-7-[2-(3-fluoro-pyridin-2-yl)-imidazol-1-ylmethyl]-[1,2,4]triazolo[1,5-c]pyrimidine] was tested, and the Ki was under 1000 nM. CCCc1c(Cn2ccnc2-c2ncccc2F)ncn2nc(Cl)nc12 [Compound 256, 2-chloro-7-{[2-(3-fluoropyridin-2-yl)-1H-imidazol-1-yl]methyl}-8-propyl[1,2,4]triazolo[1,5-c]pyrimidine] was tested, and the Ki was under 1000 nM. N#Cc1cccc(-c2nccn2Cc2ncn3ncnc3c2CCCF)n1 [Compound 237, 6-{1-[8-(3-Fluoro-propyl)-[1,2,4]triazolo[1,5-c]pyrimidin-7-ylmethyl]-1H-imidazol-2-yl}-pyridine-2-carbonitrile] showed a Ki of under 1000 nM. In the case of CCCc1c(Cn2ccnc2-c2ncccc2F)ncn2nc(CO)nc12 [Compound 223, {7-[2-(3-Fluoro-pyridin-2-yl)-imidazol-1-ylmethyl]-8-propyl-[1,2,4]triazolo[1,5-c]pyrimidin-2-yl}-methanol], the Ki is reported as under 1000 nM. CCCc1c(Cn2ccnc2-c2ncccc2F)ncn2nc(C(=O)OC)nc12 [Compound 251, methyl 7-{[2-(3-fluoropyridin-2-yl)-1H-imidazol-1-yl]methyl}-8-propyl[1,2,4]triazolo[1,5-c]pyrimidine-2-carboxylate] was tested, and the Ki was under 1000 nM. CCCc1c(Cn2ccnc2-c2ncccc2F)ncn2nc(C(C)(C)O)nc12 [Compound 249, 2-(7-{[2-(3-fluoropyridin-2-yl)-1H-imidazol-1-yl]methyl}-8-propyl[1,2,4]triazolo[1,5-c]pyrimidin-2-yl)propan-2-ol] gave a Ki of under 1000 nM. CCOc1c(Cn2ccnc2-c2ncccc2F)ncn2nc(C)nc12 [Compound 243, 8-Ethoxy-7-[2-(3-fluoro-pyridin-2-yl)-imidazol-1-ylmethyl]-2-methyl-[1,2,4]triazolo[1,5-c]pyrimidine] gave a Ki of under 1000 nM. CCCc1c(Cn2ccnc2-c2ncccc2F)ncn2nc(C#N)nc12 [Compound 240, 7-[2-(3-Fluoro-pyridin-2-yl)-imidazol-1-ylmethyl]-8-propyl-[1,2,4]triazolo[1,5-c]pyrimidine-2-carbonitrile] was tested, and the Ki was under 1000 nM. CCCc1c(Cn2ccnc2-c2ncccc2F)ncn2nc(C(N)=O)nc12 [Compound 239, 7-[2-(3-Fluoro-pyridin-2-yl)-imidazol-1-ylmethyl]-8-propyl-[1,2,4]triazolo[1,5-c]pyrimidine-2-carboxylic acidamide] showed a Ki of under 1000 nM.

Same assay, conditions: radioligand; previously determined, used in Cheng-Prusoff equation; read-out: Kd, binding dissociation constant of 3H-Ro15-1788
Work on CCOC(=O)c1ncn2c1CN(C)C(=O)c1cc(F)ccc1-2 [^3H-Ro15-1788, reference compound] yielded a Kd of 1 nM.

Source: patent US7271170B2, “Imidazo-pyrimidines and triazolo-pyrimidines: benzodiazepine receptor ligands” (Neurogen Corporation, priority 2003, dated 2007)
